Entries after “also recorded” stand apart in the source; their conditions may differ. Like-named read-outs stand apart in the source and are kept apart here.
Assays:
[1] = tested on: TCF/LEF reporter in HEK293-pBARL cells; details: read-out: TCF/LEF EC50
Description: (§1) HEK293-pBARL cells were derived from HEK293 cells and they stably expressed a firefly-luciferase reporter gene driven by a promoter containing 12 copies of TCF/LEF binding sequences. These cells were maintained in DMEM and supplemented with 10% FBS and 1% penicillin-streptomycin (Invitrogen). Reporter gene assays were conducted in anti-biotic free media. […] These cells also contained a renilla-luciferase reporter gene driven by the ubiquitous EF1α promoter as a control. HEK293-pBarl reporter cell lines were seeded into 384-well culture plates (Corning) at 6000 cells/well. 24 hours after plating, cells were treated overnight with relevant compounds and assayed using DualGlo assay kit (Promega). Luminescent intensities were read by EnVision (PerkinElmer, Waltham, Mass.). Firefly luciferase intensity is normalized by renilla luciferase intensity.
(§2) Cells were cultured in 384 well plates to appropriate density (40 μl total plating volume). 24 hours after plating, cells were treated with 100 nl compounds. 24 hours after incubation with compounds (48 hours after plating), assay reagents were prepared by mixing Luciferase Assay solution with Luciferase substrate and Stop & Glo solution to Stop & Glo substrate (extra reagents can be aliquoted and frozen for future use and are stable for at least one freeze/thaw cycle). […] The plate was spun down and 10 minutes were allowed for signal stabilization. Luciferase signal on the Perkin Elmer EnVision using the following parameters: Distance between plate & detector (mm)=0.2; Measurement time(s)=0.1; Glow (CT2) correction factor=0. Once the initial data is secure, a volume of Stop & Glo was added equal to each well equal to the volume of Luciferase reagent added above (If 10 μl Luciferase Reagent was added, 10 μl Stop & Glo was also added). The plate was spun down and 10 minutes were allowed for signal stabilization. The plate was read on the EnVision using the same parameters detailed above.

GSK3β [2] = target: T1, GSK3β (Homo sapiens (Human), UniProt P49841)
GSK3α [3] = target: T2, GSK3α (Homo sapiens (Human), UniProt P49840)
GSK3β [4] = target: T1, GSK3β; remark: listed apart in the source
[5] = tested on: phospho-Tau (Ser199) in SH-SY5Y cells; assay: Tau phosphorylation assay (phospho-Tau Ser199 ELISA); format: cell-based, human; details: Homo sapiens; for EC50: read-out: p-Tau Inhibition ELISA EC50 SH-SY5Y
Description: Tau Phosphorylation and Total Tau Assay
SH-SY5Y cells were maintained in DMEM supplemented with 10% heat-inactivated FBS and 1% penicillin-streptomycin (Invitrogen) unless otherwise stated. ELISA kits for phospho-Tau (Ser199) and total Tau detection were purchased from Invitrogen (KHB0041, and KHB7041 respectively). Briefly, SH-SY5Y cells were seeded at 50,000 cells/200 μL/well in 96 well plates and after overnight incubation, treated with various doses of chemical compounds at 0.2 μL/well. The next day cells were washed with PBS twice before being lysed in 100 μL Lysis buffer/well. 50 μL of cell lysate of each sample was transferred to an ELISA vial coated with the capture antibody, and the mixture was incubated at room temperature for 2 hours, before the supernatant was aspired, and each vial washed four times. 100 μL of detection antibody was then added to each well, incubated for 1 hour, and then washed four times. […] Data were scaled using the positive and neutral controls and fitted for IC50.
A standard protocol using an immunoassay kit to quantify total Tau protein and phospho-Tau (Ser199) protein in SH-SY5Y human neuroblastoma cells was employed. Human Tau (Total) ELISA kit (#KHB0041) and human phosphor-Tau (Ser199) ELISA kit were purchased from Invitrogen (#KHB7041)
50,000 cells were seeded in 200 μl per well in cell culture media (250,000 cells/ml). Cells were incubated overnight @37° C. Cells were induced with appropriate doses of inhibitors and incubated for approximately 24 hrs @37° C. Cell lysates were harvested by washing cells once with cold PBS and adding 100 μl cold lysis buffer and pipette up and down vigorously. Lysate was transferred to 96 well PCR plate and centrifuged at 4,000 rpm for 20 minutes at 4° C.
Well strips were warmed and inserted into the frame. 100μ of standard diluent buffer were loaded into ZERO wells, and 100 ul of each standard concentrations (both total Tau and pTau) were loaded into wells in duplicate. Samples were loaded to each well that would be analyzed for total Tau, 85 μl standard diluent buffer and 15 μl cell lysate were added. To each well that will be analyzed for pTau (Ser199) 50 μl standard diluent buffer+50 μl cell lysate were added. Plates were tapped gently on the side to mix. Certain wells were left empty for chromogen blank. Plates were covered and incubated for 2 hours at room temperature. Wells were aspirated 4 times (400 μl diluted wash buffer, left for 30 seconds, aspirated all wells; alternatively used automated plate washer and programmed in a 30 second hold between each cycle). 100 μl of detection antibody solution were added to each well except chromogen blanks. Anti-total Tau was added to wells being analyzed for total Tau, anti-pTau (Ser199) was added to wells being analyzed for pTau (Ser199), and plates were tapped gently on the side to mix. Plates were covered and incubated for 1 hour at room temperature, then wells were aspirated and washed 4 times as described above. 100 μl of anti-rabbit IgG HRP working solution (prepared ahead) were added to each well except chromogen blanks, and plates were covered and incubated for 30 minutes at room temperature, then wells were aspirated and washed 4 times as described above. 100 μl of stabilized chromogen were added to each well (the liquid turned blue). Plates were incubates for 30 minutes at room temperature in the dark, then 100 μl of stop solution were added to each well, and plates were tapped gently on the side to mix. Absorbance of each well was read at 450 nm (within 2 hours of adding stop solution).

[6] = tested on: amphetamine-induced hyperactivity; assay: Amphetamine-induced hyperactivity (AIH) in vivo; details: mice, vs vehicle
[7] = Pharmacokinetics and brain distribution in mice; format: in vivo; details: single i.p. dose 30 mg/kg, male C57BL/6 mice
[8] = tested on: TCF/LEF reporter in HEK293-pBARL cells; assay: cells; details: Homo sapiens
Description: as §1, §2

HL-60 and U937 cells = assay: GE-HTS 32-gene myeloid differentiation signature; format: cell-based; details: three days treatment
Description: HL-60 and U937 cells were treated for three days with compound 70 or vehicle. A 32-gene differentiation signature was quantified by the LMA/bead-based approach and a Weighted Summed Score (Differentiation Score) calculated for all genes was determined for each condition. Error bars denote the mean±SD of 8 replicates and statistical significance of the differences between these differentiation scores was derived using a one-way ANOVA with a Bonferroni correction.
Compound 70 Induces a Gene Expression Signature in AML Cell Lines Consistent with Myeloid Differentiation […]

AML cell lines = assay: AML cell morphology, May-Grunwald Giemsa staining; format: cell-based; details: three days after treatment, vs vehicle
Description: Compound 70 Induces Morphological Changes in AML Cell Lines Consistent with Myeloid Differentiation
On day three post-chemical treatment, cytospin preparations were performed. Changes in cellular morphology were evaluated by May-Grunwald Giemsa staining (Sigma Aldrich). Images were acquired by light microscopy at 400× magnification.

[9] = tested on: human iPSC-NPCs with TCF/LEF-luciferase reporter; assay: Neurogenesis assay; format: cell-based; details: 24-h treatment
From the text: See, e.g., Zhao et al., J Biomol Screen. 2012 October; 17(9):1252-63.

panel of 311 kinases = assay: Single point kinome-wide profile (Carna Biosciences); format: biochemical; details: for number of kinases inhibited greater than 50% at 10 μM: panel of 311 kinases
Description: (§3) Briefly, a selection of compounds was screened against a panel of kinases at a single concentration of 10 μM. […] This was completed utilizing one of two assays depending on the kinase being examined.
(§4) Test compounds were dissolved in and diluted with dimethylsulfoxide (DMSO) to generate a 100× sample solution. These were then diluted to 4× sample solutions in assay buffer to make the final test compound solutions. Reference compounds for assay control were prepared similarly.
(§5) A solution of IMAP binding reagent (IMAP Screening Express kit; Molecular Devices) (60 μL) was added to each well and incubated for 30 minutes.
(§6) A solution of termination buffer (QuickScout Screening assist MSA; Carna Biosciences) (60 μL) was added to each well. The entire reaction mixture was then applied to a LabChip3000 system (Caliper Life Science) and the product and substrate peptide peaks were separated and quantified.

DYKR1B = DYKR1B (Homo sapiens (Human), UniProt Q9Y463); assay: Single point inhibition at 10 μM (Carna), DYKR1B; format: biochemical
Description: as §3, §4, §5, §6

GSK3α [10] = target: T2, GSK3α; assay: biochemical; details: read-out: % Inhibition at 10 μM, GSK3α
Description: as §3, §4, §5, §6

CDK4 = CDK4 (Homo sapiens (Human), UniProt P11802); assay: Single point inhibition at 10 μM (Carna), CDK4; format: biochemical
Description: as §3, §4, §5, §6

CDK9 = CDK9 (Homo sapiens (Human), UniProt P50750); assay: Single point inhibition at 10 μM (Carna), CDK9; format: biochemical
Description: (§7) Single Point Inhibitory Analysis of Selected Compounds (Carna Biosciences)
as §3, §4, §5, §6

Erk5 = Erk5 (Homo sapiens (Human), UniProt Q13164); assay: Single point inhibition at 10 μM (Carna), Erk5; format: biochemical
Description: as §7, §3, §4, §5, §6

PKR = PKR (Homo sapiens (Human), UniProt P19525); assay: Single point inhibition at 10 μM (Carna), PKR; format: biochemical
Description: as §7, §3, §4, §5, §6

PBS stability = format: physicochemical; details: 48 hours of incubation, acetonitrile recovery
Description: Stability was determined in the presence of PBS pH 7.4 with 0.1% DMSO. Each compound was prepared in duplicate on six separate plates and allowed to equilibrate at room temperature with a 250 rpm orbital shake for 48 hours. One plate was removed at each time point (0, 2, 4, 8, 24, and 48 hours). […] Additionally, to the remaining material at each time point, acetonitrile was added to force dissolution of compound (to test for recovery of compound). An aliquot of this was also analyzed by UPLC-MS.

[11] = M (mouse)
RSK3 = RSK3 (Homo sapiens (Human), UniProt Q15349); assay: Single point inhibition at 10 μM (Carna), RSK3; format: biochemical
Description: as §7, §3, §4, §5, §6

[12] = tested on: β-catenin nuclear translocation in U2-OS cells; assay: β-Catenin nuclear localization assay; format: cell-based; details: Homo sapiens, U2OS, read-out: beta-Catenin translocation EC50
Description: β-Catenin Nuclear Localization Assay
U2-OS cells stably expressing two complimentary β-galactosidase fragments (one part on β-Catenin and the other constitutively expressed in the cell nucleus) were maintained in DMEM F12 supplemented with 10% FBS. When β-catenin translocates to the nucleus, the complimentary fragments form a complete β-galactosidase, the amount of which is then quantified by β-galactosidase activity (DiscoveRx). Cells were seeded in a 384-well CulturPlate (Perkin Elmer, Boston, Mass.) with 10,000 per well in 20 μL DMEM F12 containing 10% FCS, 100 U/ml penicillin and 100 μg/mL streptomycin. After overnight incubation at 37° C., cells were stimulated with 100 nL test compound/well and then returned to the incubator for 6 h. Cells were disrupted using 12 μL substrate-containing lysis buffer from the PathHunter Detection Kit in the formulation specified by the supplier (DiscoveRx). Plates were incubated in the dark for 1 h at room temperature before measurement of β-galactosidase activity (luminescence) on an EnVision plate reader (PerkinElmer, Waltham, Mass.).

MELK = MELK (Homo sapiens (Human), UniProt Q14680); assay: Single point inhibition at 10 μM (Carna), MELK; format: biochemical
Description: as §7, §3, §4, §5, §6

CDK5 = CDK5 (Homo sapiens (Human), UniProt Q00535); assay: Single point inhibition at 10 μM (Carna), CDK5; format: biochemical
Description: as §7, §3, §4, §5, §6

HIPK4 = HIPK4 (Homo sapiens (Human), UniProt Q8NE63); assay: Single point inhibition at 10 μM (Carna), HIPK4; format: biochemical
Description: as §7, §3, §4, §5, §6

MAP2K6 = MAP2K6 (Homo sapiens (Human), UniProt P52564); assay: Single point inhibition at 10 μM (Carna), MAP2K6; format: biochemical
Description: as §7, §3, §4, §5, §6

PLK1 = PLK1 (Homo sapiens (Human), UniProt P53350); assay: Single point inhibition at 10 μM (Carna), PLK1; format: biochemical
Description: as §7, §3, §4, §5, §6

LIMK1 = LIMK1 (Homo sapiens (Human), UniProt P53667); assay: Single point inhibition at 10 μM (Carna), LIMK1; format: biochemical
Description: as §3, §4, §5, §6

CK1g3 = CK1g3 (Homo sapiens (Human), UniProt Q9Y6M4); assay: Single point inhibition at 10 μM (Carna), CK1g3; format: biochemical
Description: as §3, §4, §5, §6

GSH stability = format: in vitro ADME; details: glutathione, 48 hours
Description: Stability was determined in the presence of PBS pH […] and 50 μM glutathione with 0.1% DMSO. Each compound was prepared in duplicate on six separate plates and allowed to equilibrate at room temperature with a 250 rpm orbital shake for 48 hours. One plate was removed at each time point (0, 2, 4, 8, 24, and 48 hours). […] Additionally, to the remaining material at each time point, acetonitrile was added to force dissolution of compound (to test for recovery of compound). An aliquot of this was also analyzed by UPLC-MS.

CK1g1 = CK1g1 (Homo sapiens (Human), UniProt Q9HCP0); assay: Single point inhibition at 10 μM (Carna), CK1g1; format: biochemical
Description: as §3, §4, §5, §6

BRAF = BRAF (Homo sapiens (Human), UniProt P15056); assay: Single point inhibition at 10 μM (Carna), BRAF; format: biochemical
Description: as §3, §4, §5, §6

GSK3β [13] = target: T1, GSK3β; assay: biochemical; details: read-out: % Inhibition at 10 μM, GSK3β
Description: as §3, §4, §5, §6

MLK3 = MLK3 (Homo sapiens (Human), UniProt Q16584); assay: Single point inhibition at 10 μM (Carna), MLK3; format: biochemical
Description: as §7, §3, §4, §5, §6

CLK1 = CLK1 (Homo sapiens (Human), UniProt P49759); assay: Single point inhibition at 10 μM (kinase screen), CLK1; format: biochemical
Description: as §3, §4, §5, §6

CDK2/CycE1 = CDK2/CycE1 (Homo sapiens (Human), UniProt P24941); assay: Single point inhibition at 10 μM (Carna), CDK2/CycE1; format: biochemical
Description: as §3, §4, §5, §6

CDK2/CycA2 = CDK2/CycA2 (Homo sapiens (Human), UniProt P24941); assay: Single point inhibition at 10 μM (Carna), CDK2/CycA2; format: biochemical
Description: as §3, §4, §5, §6

CDK2 = CDK2 (Homo sapiens (Human), UniProt P24941); assay: Single point inhibition at 10 μM (kinase screen), CDK2; format: biochemical
Description: as §3, §4, §5, §6

GSK3 = details: read-out: GSK3 IC50 of lithium; cited from earlier work
[14] = HEK293, read-out: TCF/LEF EC50 (μM)

T2 sequence (P49840 whole entry): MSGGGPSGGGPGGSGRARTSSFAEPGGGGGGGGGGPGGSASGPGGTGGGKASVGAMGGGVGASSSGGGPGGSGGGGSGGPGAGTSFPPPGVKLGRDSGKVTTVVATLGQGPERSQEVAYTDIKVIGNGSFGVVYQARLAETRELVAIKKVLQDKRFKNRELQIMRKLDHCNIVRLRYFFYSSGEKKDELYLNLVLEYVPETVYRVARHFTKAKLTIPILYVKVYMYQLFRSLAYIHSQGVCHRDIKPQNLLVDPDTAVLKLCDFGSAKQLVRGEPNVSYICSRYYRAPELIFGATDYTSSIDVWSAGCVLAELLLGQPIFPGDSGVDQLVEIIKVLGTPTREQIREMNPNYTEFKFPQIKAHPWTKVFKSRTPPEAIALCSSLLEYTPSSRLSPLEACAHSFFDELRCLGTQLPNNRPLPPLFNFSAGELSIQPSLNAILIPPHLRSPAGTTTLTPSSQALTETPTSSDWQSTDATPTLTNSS
T1 sequence (P49841 whole entry): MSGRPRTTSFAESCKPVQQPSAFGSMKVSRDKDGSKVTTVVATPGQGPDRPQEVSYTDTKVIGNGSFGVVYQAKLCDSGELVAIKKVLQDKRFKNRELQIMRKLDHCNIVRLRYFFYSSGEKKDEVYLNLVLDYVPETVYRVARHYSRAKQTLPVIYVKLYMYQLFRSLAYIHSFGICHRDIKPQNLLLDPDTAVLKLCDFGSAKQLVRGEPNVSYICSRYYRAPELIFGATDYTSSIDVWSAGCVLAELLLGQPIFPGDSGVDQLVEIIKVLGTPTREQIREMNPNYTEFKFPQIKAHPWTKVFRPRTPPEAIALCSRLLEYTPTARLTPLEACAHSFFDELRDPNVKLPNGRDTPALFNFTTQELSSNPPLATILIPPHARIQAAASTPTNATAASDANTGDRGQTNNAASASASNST
Erk5, sequence (Q13164 whole entry): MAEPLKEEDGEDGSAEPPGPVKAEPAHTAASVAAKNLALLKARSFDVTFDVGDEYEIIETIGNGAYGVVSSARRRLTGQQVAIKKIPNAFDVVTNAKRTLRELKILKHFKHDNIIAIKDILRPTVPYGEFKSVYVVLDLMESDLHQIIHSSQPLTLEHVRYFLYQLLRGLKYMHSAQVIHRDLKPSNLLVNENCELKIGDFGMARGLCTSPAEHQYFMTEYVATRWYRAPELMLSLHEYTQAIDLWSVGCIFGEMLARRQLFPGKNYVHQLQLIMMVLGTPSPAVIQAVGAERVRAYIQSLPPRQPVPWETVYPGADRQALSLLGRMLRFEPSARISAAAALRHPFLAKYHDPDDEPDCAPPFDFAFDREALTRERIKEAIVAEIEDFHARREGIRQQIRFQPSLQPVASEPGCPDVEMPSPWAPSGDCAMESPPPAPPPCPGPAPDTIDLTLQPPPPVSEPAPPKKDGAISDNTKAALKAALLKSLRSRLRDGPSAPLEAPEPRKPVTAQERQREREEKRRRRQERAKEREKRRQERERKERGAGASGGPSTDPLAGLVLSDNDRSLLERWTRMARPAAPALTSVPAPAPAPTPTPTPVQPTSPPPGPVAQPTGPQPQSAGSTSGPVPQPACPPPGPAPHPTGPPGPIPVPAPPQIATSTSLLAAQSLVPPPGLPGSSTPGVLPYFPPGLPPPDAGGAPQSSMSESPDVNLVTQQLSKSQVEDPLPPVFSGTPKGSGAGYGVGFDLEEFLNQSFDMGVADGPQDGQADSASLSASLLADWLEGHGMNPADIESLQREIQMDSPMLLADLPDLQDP
RSK3, sequence (Q15349 whole entry): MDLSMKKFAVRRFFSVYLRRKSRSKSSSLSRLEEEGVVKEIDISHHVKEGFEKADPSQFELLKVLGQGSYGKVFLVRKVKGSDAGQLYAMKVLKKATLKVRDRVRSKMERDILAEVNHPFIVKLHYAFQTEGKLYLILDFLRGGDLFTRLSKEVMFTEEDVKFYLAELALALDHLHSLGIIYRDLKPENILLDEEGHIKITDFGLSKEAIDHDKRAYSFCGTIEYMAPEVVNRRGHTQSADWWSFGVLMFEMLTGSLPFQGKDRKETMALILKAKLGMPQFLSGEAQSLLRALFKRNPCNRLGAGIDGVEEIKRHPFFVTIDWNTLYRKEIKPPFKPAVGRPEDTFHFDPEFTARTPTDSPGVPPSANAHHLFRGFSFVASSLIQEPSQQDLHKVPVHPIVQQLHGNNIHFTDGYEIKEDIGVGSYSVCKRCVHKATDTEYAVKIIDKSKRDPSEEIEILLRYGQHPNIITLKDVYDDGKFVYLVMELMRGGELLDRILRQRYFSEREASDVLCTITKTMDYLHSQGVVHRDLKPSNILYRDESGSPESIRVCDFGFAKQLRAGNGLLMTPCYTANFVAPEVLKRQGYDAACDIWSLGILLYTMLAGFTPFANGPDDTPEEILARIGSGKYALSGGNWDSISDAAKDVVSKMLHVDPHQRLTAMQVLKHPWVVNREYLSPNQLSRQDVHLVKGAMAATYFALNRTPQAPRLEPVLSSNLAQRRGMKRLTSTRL
DYKR1B, sequence (Q9Y463 whole entry): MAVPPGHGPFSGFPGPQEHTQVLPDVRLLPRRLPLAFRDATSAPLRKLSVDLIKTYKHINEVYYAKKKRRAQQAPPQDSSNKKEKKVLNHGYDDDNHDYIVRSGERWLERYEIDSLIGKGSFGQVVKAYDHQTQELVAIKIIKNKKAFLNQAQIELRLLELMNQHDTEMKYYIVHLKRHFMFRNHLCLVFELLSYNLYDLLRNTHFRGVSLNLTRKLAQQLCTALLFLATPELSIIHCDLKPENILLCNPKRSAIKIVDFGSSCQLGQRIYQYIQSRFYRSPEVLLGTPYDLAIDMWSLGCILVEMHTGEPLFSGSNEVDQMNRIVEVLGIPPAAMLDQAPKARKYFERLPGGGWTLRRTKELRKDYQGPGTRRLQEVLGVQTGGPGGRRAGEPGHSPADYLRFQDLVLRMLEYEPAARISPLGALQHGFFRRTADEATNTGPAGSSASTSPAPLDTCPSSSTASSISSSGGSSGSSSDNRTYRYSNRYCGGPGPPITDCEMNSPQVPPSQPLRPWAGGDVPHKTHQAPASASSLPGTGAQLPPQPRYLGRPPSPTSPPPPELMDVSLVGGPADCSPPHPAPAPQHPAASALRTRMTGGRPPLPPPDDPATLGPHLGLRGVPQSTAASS
CDK4, sequence (P11802 whole entry): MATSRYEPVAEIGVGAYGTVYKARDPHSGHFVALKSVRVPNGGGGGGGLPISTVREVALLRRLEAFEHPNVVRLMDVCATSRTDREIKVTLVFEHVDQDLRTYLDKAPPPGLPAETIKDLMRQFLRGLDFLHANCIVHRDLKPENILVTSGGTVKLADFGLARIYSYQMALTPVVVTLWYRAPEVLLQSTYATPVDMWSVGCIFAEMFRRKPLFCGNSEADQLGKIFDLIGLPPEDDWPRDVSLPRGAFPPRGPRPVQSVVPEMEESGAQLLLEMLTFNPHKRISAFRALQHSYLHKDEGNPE
CDK4, sequence (P30281 whole entry partner): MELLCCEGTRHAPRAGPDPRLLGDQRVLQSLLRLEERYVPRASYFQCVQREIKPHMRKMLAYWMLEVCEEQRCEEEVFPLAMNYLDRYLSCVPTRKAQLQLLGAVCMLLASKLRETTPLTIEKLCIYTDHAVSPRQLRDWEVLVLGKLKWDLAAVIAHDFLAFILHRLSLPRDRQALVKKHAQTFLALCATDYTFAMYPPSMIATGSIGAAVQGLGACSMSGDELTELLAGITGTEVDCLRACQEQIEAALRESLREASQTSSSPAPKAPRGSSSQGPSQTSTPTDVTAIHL
HIPK4, sequence (Q8NE63 whole entry): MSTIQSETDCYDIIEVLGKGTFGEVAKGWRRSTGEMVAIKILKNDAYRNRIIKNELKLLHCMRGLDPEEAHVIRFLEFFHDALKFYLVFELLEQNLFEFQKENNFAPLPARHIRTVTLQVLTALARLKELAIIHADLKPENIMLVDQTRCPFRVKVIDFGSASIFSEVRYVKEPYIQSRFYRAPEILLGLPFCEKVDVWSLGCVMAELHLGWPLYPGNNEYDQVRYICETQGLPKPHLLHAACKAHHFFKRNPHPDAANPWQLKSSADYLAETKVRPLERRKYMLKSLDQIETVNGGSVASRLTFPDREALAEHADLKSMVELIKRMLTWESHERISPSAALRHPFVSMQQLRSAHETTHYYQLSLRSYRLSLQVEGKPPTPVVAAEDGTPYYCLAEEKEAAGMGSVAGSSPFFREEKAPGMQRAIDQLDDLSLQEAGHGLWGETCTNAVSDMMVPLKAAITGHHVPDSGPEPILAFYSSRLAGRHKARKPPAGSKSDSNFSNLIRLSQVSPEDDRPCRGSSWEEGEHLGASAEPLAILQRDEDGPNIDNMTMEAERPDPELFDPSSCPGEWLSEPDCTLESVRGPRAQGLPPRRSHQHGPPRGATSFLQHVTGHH
PLK1, sequence (P53350 whole entry): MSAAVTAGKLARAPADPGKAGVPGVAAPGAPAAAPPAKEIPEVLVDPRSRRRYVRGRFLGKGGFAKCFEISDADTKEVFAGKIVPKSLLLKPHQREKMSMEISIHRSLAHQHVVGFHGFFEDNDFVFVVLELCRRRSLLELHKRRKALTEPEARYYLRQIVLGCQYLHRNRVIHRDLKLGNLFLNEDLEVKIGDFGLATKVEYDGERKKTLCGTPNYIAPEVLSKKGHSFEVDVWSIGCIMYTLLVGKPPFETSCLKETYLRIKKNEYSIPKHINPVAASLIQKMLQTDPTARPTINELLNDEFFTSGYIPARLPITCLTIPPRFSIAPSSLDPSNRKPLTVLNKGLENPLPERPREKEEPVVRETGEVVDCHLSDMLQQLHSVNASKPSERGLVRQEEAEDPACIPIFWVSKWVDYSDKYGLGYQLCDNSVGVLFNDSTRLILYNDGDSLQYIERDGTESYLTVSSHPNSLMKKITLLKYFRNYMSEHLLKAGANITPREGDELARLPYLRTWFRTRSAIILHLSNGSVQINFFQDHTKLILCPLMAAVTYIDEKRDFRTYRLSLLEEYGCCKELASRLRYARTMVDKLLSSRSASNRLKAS

With CC1(C)CC(=O)C2=C(C1)Nc1n[nH]c(C(F)(F)F)c1[C@@H]2c1c(F)cccc1F [Compound 59] the EC50 [1] was over 25 µM, the IC50 (GSK3β [2]) was under 0.1 µM and the IC50 (GSK3α [3]) was 0.101 to 1 µM. For the same compound, the IC50 (GSK3β [4]) was under 0.1 µM.

For CC1(C)CC(=O)C2=C(C1)Nc1n[nH]c(C(F)(F)F)c1C2(C)c1ccccc1 (single isomer, unassigned) [Compound 70, 4,7,7-trimethyl-4-phenyl-3-(trifluoromethyl)-6,7,8,9-tetrahydro-2H-pyrazolo[3,4-b]quinolin-5(4H)-one], the EC50 ([5]; SH-SY5Y) was 0.819 µM, the “effect on amphetamine-induced hyperactivity, intraperitoneal injection” value ([6]; systemic i.p.) was “attenuate amphetamine-induced hyperactivity” and the “pharmacokinetic profile (systemic exposure and brain distribution) compared to CHIR99021” value [7] was “improved pharmacokinetic profile”. For the same compound, the EC50 [8, 14] was 1.86 µM, the “AML differentiation by GE-HTS signature” value (HL-60 and U937 cells) was “induced a gene expression signature in AML cell lines consistent with myeloid differentiation; also recorded: induces AML (acute myeloid leukemia) differentiation by GE-HTS signature” and the “morphological evidence of AML differentiation” value (AML cell lines) was “induces morphological evidence of AML (acute myeloid leukemia) differentiation”. The “morphological evidence of AML differentiation” value (AML cell lines; listed as compound 70) was “demonstrated cellular differentiation”.

In the case of COc1ccccc1[C@@H]1C2=C(CC(C)(C)CC2=O)Nc2n[nH]c(C)c21 [Compound 22, 4-(2-methoxyphenyl)-3,7,7-trimethyl-6,7,8,9-tetrahydro-1H-pyrazolo[3,4-b]quinolin-5(4H)-one], the “effect on amphetamine-induced hyperactivity, ICV injection” value ([6]; intracerebroventricular) is reported as “attenuate amphetamine-induced hyperactivity”, the neurogenesis [9] is reported as “promoted neurogenesis” and the “number of kinases inhibited greater than 50% at 10 μM” value (panel of 311 kinases) is reported as 8 kinases.

COc1ccccc1[C@@H]1C2=C(CC(C)(C)CC2=O)Nc2n[nH]c(C(F)(F)F)c21 [Compound 54, (R)-4-(2-methoxyphenyl)-7,7-dimethyl-3-(trifluoromethyl)-6,7,8,9-tetrahydro-2H-pyrazolo[3,4-b]quinolin-5(4H)-one] showed an inhibition at 10 µM (DYKR1B) of 52.5%, an inhibition at 10 µM (GSK3α [10]) of 99.9% and an EC50 [1] of 4.8 µM. The EC50 [5] was 1.7 µM, the inhibition at 10 µM (CDK4) was 19% and the inhibition at 10 µM (CDK9) was 20.5%. It also gave an inhibition at 10 µM (Erk5) of 0.6%, an inhibition at 10 µM (PKR) of 0.1% and an EC50 ([8]; HEK293, read-out: TCF/LEF EC50 (μM), HEK293 reporter cells) of 5 µM. For the same compound, the “PBS stability, % still present” value (PBS stability) was “more than 95%”, the “Microsomal Stability” value [11] was “M: 0%” and the inhibition at 10 µM (RSK3) was 0.1%. It also gave an EC50 [12] of 5 µM, an inhibition at 10 µM (MELK) of 4.5% and an inhibition at 10 µM (CDK5) of 86.7%. The inhibition at 10 µM (HIPK4) was 3.2%, the inhibition at 10 µM (MAP2K6) was 0.1% and the inhibition at 10 µM (PLK1) was 21.3%. The inhibition at 10 µM (LIMK1) was 6.7%, the inhibition at 10 µM (CK1g3) was 3.2% and the “GSH stability, % remaining” value (GSH stability) was 99%. For the same compound, the inhibition at 10 µM (CK1g1) was 0.5%, the “% of the kinome (311 kinases) inhibited” value (panel of 311 kinases; 10 μM, 311 kinases) was 2.6% and the inhibition at 10 µM (BRAF) was 10.8%. It also gave an inhibition at 10 µM (GSK3β [13]) of 99.9% and an inhibition at 10 µM (MLK3) of 18.8%.

Cc1c[nH]c(-c2cnc(NCCNc3ccc(C#N)cn3)nc2-c2ccc(Cl)cc2Cl)n1 [CHIR99021, reference compound] showed an inhibition at 10 µM (DYKR1B) of 70.5%, an inhibition at 10 µM (GSK3α [10]) of 99.9% and an inhibition at 10 µM (CLK1) of over 50%. For the same compound, the inhibition at 10 µM (CDK2/CycE1) was 67.2%, the IC50 ([5]; read-out: Phospho-Tau ELISA in SHSY5Y Cells (IC50)) was 0.44 µM and the inhibition at 10 µM (CDK4) was 65.3%. The inhibition at 10 µM (Erk5) was over 50%, the inhibition at 10 µM (PKR) was 57.1% and the EC50 [8, 14] was 6 µM. The “Microsomal Stability” value [11] was “M: 4%”, the inhibition at 10 µM (RSK3) was 53.6% and the EC50 [12] was 10 µM. It also gave an inhibition at 10 µM (MELK) of 53.5%, an inhibition at 10 µM (CDK5) of over 50% and an inhibition at 10 µM (HIPK4) of 55.5%. The inhibition at 10 µM (MAP2K6) was 65.3%, the inhibition at 10 µM (PLK1) was over 50% and the inhibition at 10 µM (CK1g3) was 70.5%. For the same compound, the inhibition at 10 µM (CDK2/CycA2) was 79.3%, the inhibition at 10 µM (CK1g1) was 85.8% and the “number of kinases inhibited greater than 50% at 10 μM” value (panel of 311 kinases) was 21 kinases. It also gave an inhibition at 10 µM (BRAF) of 53.8%, an inhibition at 10 µM (GSK3β [13]) of 99.9% and an inhibition at 10 µM (MLK3) of 52.7%. For the same compound, the inhibition at 10 µM (CDK2) was over 50%.

In the case of [Li+] [Li^+], the IC50 (GSK3) is listed as 2000 µM.
